Laboratory results as given in ChEMBL document CHEMBL3885861, “Open TG-GATES”.

Species on record: Rattus norvegicus
Assay: Open TG-GATES - Regimen: Single
Type: toxicity, organism-based, Sprague-Dawley
Parameters: regimen Single, gender Male, age 6 weeks
Settings: in vivo, po, 0 mg/kg, route gavage, dose level Control; for APTT / Bas / Eos / Fbg / Hb / Ht / Lym / MCH / MCHC / MCV / Mono / Neu / PT / Plat / RBC / Ret / WBC: tissue Blood; for KIDNEY_L / KIDNEY_R / KIDNEY_TOTAL: tissue Kidney; for LIVER: tissue Liver; for A/G / ALP / ALT / AST / BUN / CRE / Ca / Cl / DBIL / GLC / IP / K / LDH / Na / PL / RALB / TBIL / TC / TG / TP / gamma-GTP: tissue Plasma

CC(CN1c2ccccc2Sc2ccccc21)N(C)C (configuration not stated) [PROMETHAZINE]
TERMINAL_BW (3 h): 213.5 g | APTT (3 h): 22.4 s | Bas (3 h): 0% | Eos (3 h): 0.8% | Fbg (3 h): 333.6 mg/dL | Hb (3 h): 13 g/dL | Ht (3 h): 39.9% | Lym (3 h): 81.4% | MCH (3 h): 20.6 pg | MCHC (3 h): 32.6% | MCV (3 h): 63.4 fL | Mono (3 h): 2.4% | Neu (3 h): 15.2% | PT (3 h): 16.4 s | Plat (3 h): 117.1 x10_4/uL | RBC (3 h): 629.4 x10_4/ul | Ret (3 h): 8.5% | WBC (3 h): 94.5 x10_2/uL | KIDNEY_L (3 h): 0.9 g | KIDNEY_R (3 h): 1 g | KIDNEY_TOTAL (3 h): 1.9 g | LIVER (3 h): 9.9 g | A/G (3 h): 1.2 | ALP (3 h): 1819.4 IU/L | ALT (3 h): 42.8 IU/L | AST (3 h): 76 IU/L | BUN (3 h): 12.8 mg/dL | CRE (3 h): 0.2 mg/dL | Ca (3 h): 10.9 mg/dL | Cl (3 h): 105.8 meq/L | DBIL (3 h): 0 mg/dL | GLC (3 h): 190.4 mg/dL | IP (3 h): 8.1 mg/dL | K (3 h): 4.4 meq/L | LDH (3 h): 234.4 IU/L | Na (3 h): 142.2 meq/L | PL (3 h): 134.2 mg/dL | RALB (3 h): 3 g/dL | TBIL (3 h): 0.016 mg/dL | TC (3 h): 75 mg/dL | TG (3 h): 64.2 mg/dL | TP (3 h): 5.5 g/dL | gamma-GTP (3 h): 1.2 IU/L | TERMINAL_BW (6 h): 210.9 g | APTT (6 h): 22.7 s | Bas (6 h): 0% | Eos (6 h): 1% | Fbg (6 h): 310.8 mg/dL | Hb (6 h): 13.3 g/dL | Ht (6 h): 39.9% | Lym (6 h): 82.6% | MCH (6 h): 20.9 pg | MCHC (6 h): 33.4% | MCV (6 h): 62.5 fL | Mono (6 h): 2.4% | Neu (6 h): 13.6% | PT (6 h): 16.7 s | Plat (6 h): 111.7 x10_4/uL | RBC (6 h): 639.6 x10_4/ul | Ret (6 h): 7.3% | WBC (6 h): 81.5 x10_2/uL | KIDNEY_L (6 h): 1 g | KIDNEY_R (6 h): 1 g | KIDNEY_TOTAL (6 h): 2 g | LIVER (6 h): 8.7 g | A/G (6 h): 1.3 | ALP (6 h): 1393.4 IU/L | ALT (6 h): 41.4 IU/L | AST (6 h): 76.2 IU/L | BUN (6 h): 11.2 mg/dL | CRE (6 h): 0.2 mg/dL | Ca (6 h): 10.9 mg/dL | Cl (6 h): 104.8 meq/L | DBIL (6 h): 0 mg/dL | GLC (6 h): 186.2 mg/dL | IP (6 h): 9.4 mg/dL | K (6 h): 4.3 meq/L | LDH (6 h): 208.2 IU/L | Na (6 h): 141.2 meq/L | PL (6 h): 133.8 mg/dL | RALB (6 h): 3 g/dL | TBIL (6 h): 0.018 mg/dL | TC (6 h): 83.2 mg/dL | TG (6 h): 53 mg/dL | TP (6 h): 5.4 g/dL | gamma-GTP (6 h): 1.8 IU/L | TERMINAL_BW (9 h): 207.6 g | APTT (9 h): 22.2 s | Bas (9 h): 0% | Eos (9 h): 0.8% | Fbg (9 h): 318.8 mg/dL | Hb (9 h): 13.1 g/dL | Ht (9 h): 40.1% | Lym (9 h): 80% | MCH (9 h): 20.8 pg | MCHC (9 h): 32.6% | MCV (9 h): 64 fL | Mono (9 h): 3% | Neu (9 h): 15.6% | PT (9 h): 16.7 s | Plat (9 h): 123.9 x10_4/uL | RBC (9 h): 627.6 x10_4/ul | Ret (9 h): 8.1% | WBC (9 h): 107.3 x10_2/uL | KIDNEY_L (9 h): 1 g | KIDNEY_R (9 h): 1 g | KIDNEY_TOTAL (9 h): 1.9 g | LIVER (9 h): 8.7 g | A/G (9 h): 1.2 | ALP (9 h): 1357.2 IU/L | ALT (9 h): 38.8 IU/L | AST (9 h): 68 IU/L | BUN (9 h): 12.4 mg/dL | CRE (9 h): 0.2 mg/dL | Ca (9 h): 10.6 mg/dL | Cl (9 h): 104.6 meq/L | DBIL (9 h): 0.004 mg/dL | GLC (9 h): 191.2 mg/dL | IP (9 h): 10 mg/dL | K (9 h): 4.5 meq/L | LDH (9 h): 237.8 IU/L | Na (9 h): 140.4 meq/L | PL (9 h): 125.8 mg/dL | RALB (9 h): 3 g/dL | TBIL (9 h): 0.016 mg/dL | TC (9 h): 73.2 mg/dL | TG (9 h): 55 mg/dL | TP (9 h): 5.4 g/dL | gamma-GTP (9 h): 1.2 IU/L | TERMINAL_BW (24 h): 222 g | APTT (24 h): 22.1 s | Bas (24 h): 0% | Eos (24 h): 0.8% | Fbg (24 h): 326.8 mg/dL | Hb (24 h): 13.5 g/dL | Ht (24 h): 40.2% | Lym (24 h): 81.6% | MCH (24 h): 20.8 pg | MCHC (24 h): 33.5% | MCV (24 h): 62.2 fL | Mono (24 h): 2% | Neu (24 h): 14.8% | PT (24 h): 17 s | Plat (24 h): 131.7 x10_4/uL | RBC (24 h): 647.6 x10_4/ul | Ret (24 h): 7.2% | WBC (24 h): 130.1 x10_2/uL | KIDNEY_L (24 h): 1 g | KIDNEY_R (24 h): 1 g | KIDNEY_TOTAL (24 h): 2 g | LIVER (24 h): 10.5 g | A/G (24 h): 1.3 | ALP (24 h): 1690.8 IU/L | ALT (24 h): 44.2 IU/L | AST (24 h): 73.2 IU/L | BUN (24 h): 15.8 mg/dL | CRE (24 h): 0.2 mg/dL | Ca (24 h): 11 mg/dL | Cl (24 h): 106.6 meq/L | DBIL (24 h): 0 mg/dL | GLC (24 h): 192.6 mg/dL | IP (24 h): 7.2 mg/dL | K (24 h): 4.4 meq/L | LDH (24 h): 180.6 IU/L | Na (24 h): 142.4 meq/L | PL (24 h): 141.4 mg/dL | RALB (24 h): 3.1 g/dL | TBIL (24 h): 0.004 mg/dL | TC (24 h): 74.4 mg/dL | TG (24 h): 95.8 mg/dL | TP (24 h): 5.5 g/dL | gamma-GTP (24 h): 1.4 IU/L
